Experiment: Screening experiments of nanosuspensions with different stabilizers (wet bead milling, planetary mill)
Format: physicochemical
Settings: wet bead milling process according to Examples 1-3
Procedure: Most of the screening experiments of Example 1 were done in a planetary ball mill (PBM) of type Pulverisette 5. For sample preparation, the micronized compound of the formula (I) was predispersed in aqueous polymer surfactant solution and transferred into the grinding chamber (PET 23ml) which was filled with milling beads. The water contained in the solution was used as dispersing agent. As grinding media (0.4 - 0.6 mm) the Silibeads® zirconium oxide (yttrium stabilized) with a bulk density of 3.9 kg/l from Sigmund Lindner (Germany) were used. The milling beads fill level was 60% of the grinding chamber volume. Care was taken not to leave any air inclusions in the grinding chamber, as this would have a negative effect on the grinding process. The grinding time was 90 minutes at 400 rotations per minute. Four grinding chambers could be fed into the PBM per grinding operation. Thus, after separation of the grinding media, about 40 - 45 g suspension per grinding process could be produced.
The compound of formula (I) in crystalline form of modification I was produced according to example 13, method E of WO 2013/076168. Before nanomilling, the compound of formula (I) in crystalline form of modification I was micronized. For the screening experiments many different formulations were tested. For these experiments the duration of milling was 60 min. […]

d50 after milling: < 200 nm
SMILES: COC(=O)Nc1c(N)nc(-c2nn(Cc3ccccc3F)c3ncc(F)cc23)nc1N [Vericiguat, methyl {4,6-diamino-2-[5-fluoro-1-(2-fluorobenzyl)-1H-pyrazolo[3,4-b]pyridin-3-yl]pyrimidin-5-yl}carbamate]
